Among the data in ChEMBL document CHEMBL3046722, “QSAR study of 1,3dioxo-4-methyl-2,3-dihydro-1h-pyrrolo[3,4-c]quinolines as caspase-3 inhibitors” (Med Chem Res, 2008) are logP values, retold here.

The data set is described as follows: Octanol-water partition coefficient, log P of the compound. The class given is physicochemical.
As for `COC(=O)CCN1C(=O)c2c(C)nc3ccccc3c2C1=O`, the lipophilicity (logP) (commonly the decadic logarithm of the partition coefficient of the neutral form, usually between octanol and water) was 1.92.

On to `Cc1nc2ccc(S(N)(=O)=O)cc2c2c1C(=O)N(c1c(C)nn(C)c1C)C2=O`, for which the logP worked out at 2.16.

`COC(=O)CCN1C(=O)c2c(C)nc3ccc(Br)cc3c2C1=O` displayed a logP of 2.71.

With `Cc1nc2ccc(F)cc2c2c1C(=O)NC2=O`, the logP was 2.05.

In turn, `Cc1nc2ccc(S(=O)(=O)N3CCCC3COc3ccccc3)cc2c2c1C(=O)N(c1c(C)nn(C)c1C)C2=O` (centres undefined) had a logP of 4.67.

`Cc1nc2ccc(Br)cc2c2c1C(=O)N(c1c(C)nn(C)c1C)C2=O` gave a logP of 4.43.

`COCCNS(=O)(=O)c1ccc2nc(C)c3c(c2c1)C(=O)N(c1c(C)nn(C)c1C)C3=O` displayed a logP of 2.24.

Turning to `COC(=O)CN1C(=O)c2c(C)nc3ccccc3c2C1=O`, the lipophilicity (logP) was found to be 1.73.

In turn, `Cc1nc2ccc(Br)cc2c2c1C(=O)NC2=O` registered a logP of 2.71.

`Cc1nc2ccc(S(=O)(=O)NCCO)cc2c2c1C(=O)N(c1c(C)nn(C)c1C)C2=O`: the logP came out at 1.96.

The compound `Cc1nc2ccc(C#N)cc2c2c1C(=O)N(c1c(C)nn(C)c1C)C2=O` displayed a logP of 3.68.

`COC(=O)CN1C(=O)c2c(C)nc3ccc(F)cc3c2C1=O` had a logP of 1.87.

With `Cc1nc2ccc(S(=O)(=O)N3CCOCC3)cc2c2c1C(=O)N(C)C2=O`, the log partition coefficient (logP) is 0.83.

The compound `COC(=O)CCN1C(=O)c2c(C)nc3ccc(S(=O)(=O)N4CCOCC4)cc3c2C1=O` yielded a logP of 0.585.

In turn, `Cc1ccccc1N1C(=O)c2c(C)nc3ccccc3c2C1=O` showed a logP of 4.54.

Regarding `Cc1nc2ccc(S(=O)(=O)N3CCOCC3)cc2c2c1C(=O)NC2=O`, the logP came out at 0.584.

Regarding `Cc1ccccc1N1C(=O)c2c(C)nc3ccc(S(=O)(=O)N4CCOCC4)cc3c2C1=O`, the logP turned out to be 3.21.

For the compound `COC(=O)CCN1C(=O)c2c(C)nc3ccc(F)cc3c2C1=O`, the logP stood at 2.06.

The compound `Cc1ccccc1N1C(=O)c2c(C)nc3ccc(Br)cc3c2C1=O` returned a logP of 5.33.

`Cc1nc2ccc(S(=O)(=O)N3CCOCC3)cc2c2c1C(=O)N(c1c(C)nn(C)c1C)C2=O`: the lipophilicity (logP) was found to be 2.31.

Compound `COC(=O)CN1C(=O)c2c(C)nc3ccc(S(=O)(=O)N4CCOCC4)cc3c2C1=O` displayed a logP of 0.404.

With `Cc1nc2ccc(Br)cc2c2c1C(=O)N(C)C2=O`, the logP worked out at 2.95.

As to `COC(=O)C(Cc1ccccc1)NS(=O)(=O)c1ccc2nc(C)c3c(c2c1)C(=O)N(c1c(C)nn(C)c1C)C3=O` (centres undefined), the logP is 4.2.

In the case of `COC(=O)CN1C(=O)c2c(C)nc3ccc(Br)cc3c2C1=O`, the logP came out at 2.53.
